Results: paper PMC7402526, “An in vitro quantitative systems pharmacology approach for deconvolving mechanisms of drug-induced, multilineage cytopenias” (PLoS Computational Biology, 2020)

Experiments:
Assay type in all cases: cell-based, human
MK cells (MK-lin) = experiment: MLTA, MK: concentration-response and QSP model fit; details: for EC50 / EmaxT,MK: QSP model parameter, sheet EC50_parameters, MK; for Emax_drug_MK: parameter from QSP model fitting
Procedure: (§1) A custom optimized cytokine cocktail was developed using commercially available cytokines (Peprotech, New Jersey) to facilitate simultaneous multi-lineage differentiation and self-renewal of freeze-thawed primary human bone marrow-derived CD34+ cells in SFEM II media (cells and media from StemCell Technologies, Vancouver). Cultures were carried out in ultra-low attachment 96-well plates (Corning, New York) with test article added on day 0 and cultured at 37°C, 85% relative humidity, and 5% CO2 for six days before interrogating drug impact via 17-parameter flow cytometry.
(§2) The flow cytometry panel used to define hematopoietic subsets was composed of CD34-PECy7, CD90-PECY5, CD38-AF488, CD371-PE, CD45Ra-BV421, CD14-BV605, CD42b-AF647, CD10-PEDazzle594, CD235a-PerCPCy5.5 (BioLegend, California), CD15-BUV395, CD41a-APCH7, CD71-BV786 (BD Biosciences, California), and DAPI for dead cell exclusion (ThermoFisher, California). In short, Day 6 cells were harvested, FcR-blocked (FcR binding inhibitor, ThermoFisher), surface-stained, then analyzed in a buffer containing TruCount Control Beads using a BD LSR Fortessa SORP fitted with a high-throughput sampler (BD Biosciences, California). Data was analyzed in Diva 6.0.2 and exported to CSV where after all cell data was transformed to cell per mL then normalized on a per-donor basis to untreated control wells to determine drug impact.
(§3) Donor material was collected and cultured as described above. The number of replicate donor samples per drug ranged from 2–7 and varied per drug (S1 Table). Drug treatment was added at time 0 and cells were maintained in culture for 6 days. Concentrations tested for each drug compound are contained in S1 Table. Concentrations were selected to span a range that is clinically useful. Following treatment, cell populations were measured using flow cytometry. We extracted cell counts from flow cytometry data, normalized to bead counts, and corrected for well volume.
(§4) Each well was normalized to the average of six vehicle control wells. For drugs that were tested across multiple runs of the assay, vehicle-normalized donor data were pooled, and we used the average of these pooled data for further modeling. Normalized data used as model inputs are included in S1 Table.
(§5) We implemented drug effects using an Emax model for the drug’s effect on each cell type. The 13 maximum effect parameters (EmaxT,C) are unitless and can vary between 0 and 2 and where a subscript, C, represents one of the previously described 13 cell types. We adapted a traditional Emax model using the equations below. We interpreted EmaxT values less than or equal to one as anti-proliferative, and EmaxT values greater than one as indicating a cell-killing mechanism in addition to anti-proliferation. The relationships for these effects are included in the model using the following equations. Eq 2 describes the drug anti-proliferative effect in the net proliferation rate for a given cell type. Eq 3 describes the cell-killing EmaxCK effect.
(§6) Towards the estimation of mechanistic parameters, we considered different formulations: (a) weighting the objective value to prioritize fitting dead cells and (b) using regularization methodology to encourage a parsimonious solution. We assessed the contributions of these formulations using mean-squared error and goodness of fit plots for drugs with known mechanisms. […] Further, we used L1 regularization to penalize parameters […] to help identify a parsimonious set of parameters to explain drug effects.

[1] = test system: hematopoietic stem cells (HSCs); experiment: Multi-lineage toxicity assay (MLTA), HSCs: concentration-response and QSP model fit; parameters: EmaxAP,HSC / EmaxT,HSC / Emax_drug_HSC: unitless, 0–2; ≤1 anti-proliferative, >1 adds cell killing; details: for EC50 / EmaxT,HSC: QSP model parameter, sheet EC50_parameters, HSCs; for Emax_drug_HSC: parameter from QSP model fitting
Procedure: as §1, §2, §3, §4, §5, §6

granulocytes (Gran-lin) = experiment: MLTA, Gran: concentration-response and QSP model fit; details: for EC50 / EmaxT,Gran: QSP model parameter, sheet EC50_parameters, Gran; for Emax_drug_Gran: parameter from QSP model fitting
Procedure: as §1, §2, §3, §4, §5, §6

[2] = test system: early erythroid cells (Eryth I); experiment: MLTA, ErythI: concentration-response and QSP model fit; details: for EmaxT,ErythroidI / EC50: QSP model parameter, sheet EC50_parameters, Erythroid I; for EC50: read-out: EC50ErythroidI; for Emax_drug_ErythroidI: parameter from QSP model fitting
Procedure: as §1, §2, §3, §4, §5, §6

[3] = test system: monocyte progenitors (monocyte prog); experiment: MLTA, MonoP: concentration-response and QSP model fit; details: for EmaxT,MonoP / EC50: QSP model parameter, sheet EC50_parameters, MonoP; for EC50: read-out: EC50MonoP; for Emax_drug_MonoP: parameter from QSP model fitting
Procedure: as §1, §2, §3, §4, §5, §6

[4] = test system: neutrophils (neutrophil-lin); experiment: MLTA, Neut: concentration-response and QSP model fit; details: for EC50 / EmaxT,Neut: QSP model parameter, sheet EC50_parameters, Neut; for Emax_drug_Neut: parameter from QSP model fitting
Procedure: as §1, §2, §3, §4, §5, §6

[5] = test system: multi-potent progenitors (MPPs); experiment: MLTA, MPPs: concentration-response and QSP model fit; details: for EC50 / EmaxT,MPP: QSP model parameter, sheet EC50_parameters, MPPs; for Emax_drug_MPP: parameter from QSP model fitting
Procedure: as §1, §2, §3, §4, §5, §6

[6] = test system: late erythroid cells (Eryth II); experiment: MLTA, ErythII: concentration-response and QSP model fit; details: for EmaxT,ErythroidII / EC50: QSP model parameter, sheet EC50_parameters, Erythroid II; for EC50: read-out: EC50ErythroidII; for Emax_drug_ErythroidII: parameter from QSP model fitting
Procedure: as §1, §2, §3, §4, §5, §6

monocytes (monocyte-lin) = experiment: MLTA, Mono: concentration-response and QSP model fit; details: for EC50 / EmaxT,Mono: QSP model parameter, sheet EC50_parameters, Mono; for Emax_drug_Mono: parameter from QSP model fitting
Procedure: as §1, §2, §3, §4, §5, §6

B cells (B-lin) = experiment: MLTA, B-lin: concentration-response and QSP model fit; details: for EC50 / EmaxT,B: QSP model parameter, sheet EC50_parameters, B; for Emax_drug_B: parameter from QSP model fitting
Procedure: as §1, §2, §3, §4, §5, §6

[7] = test system: lymphocyte progenitors (LymP); experiment: MLTA, LymP: concentration-response and QSP model fit; details: for EC50 / EmaxT,LymP: QSP model parameter, sheet EC50_parameters, LymP; for Emax_drug_LymP: parameter from QSP model fitting
Procedure: as §1, §2, §3, §4, §5, §6

[8] = test system: granulocyte-macrophage progenitor (GMPs); experiment: MLTA, GMPs: concentration-response and QSP model fit; details: for EC50 / EmaxT,GMP: QSP model parameter, sheet EC50_parameters, GMPs; for Emax_drug_GMP: parameter from QSP model fitting
Procedure: as §1, §2, §3, §4, §5, §6

[9] = test system: granulocyte progenitor (Gran-lin prog); experiment: MLTA, GranP: concentration-response and QSP model fit; details: for EmaxT,GranP / EC50: QSP model parameter, sheet EC50_parameters, GranP; for EC50: read-out: EC50GranP; for Emax_drug_GranP: parameter from QSP model fitting
Procedure: as §1, §2, §3, §4, §5, §6

EC50 (MK cells (MK-lin)) [µM]	EC50 (granulocytes (Gran-lin)) [µM]	EC50 [2] [µM]	EC50 [3] [µM]	EC50 [4] [µM]	EC50 [5] [µM]	Compound	EmaxT,MK (MK cells (MK-lin))	Emax_drug_MK (MK cells (MK-lin))	EC50 [1] [µM]	EmaxT,HSC [1]	Emax_drug_HSC [1]	EmaxT,Gran (granulocytes (Gran-lin))	Emax_drug_Gran (granulocytes (Gran-lin))	EmaxT,ErythroidI [2]	Emax_drug_ErythroidI [2]	EmaxT,MonoP [3]	Emax_drug_MonoP [3]	EmaxT,Neut [4]	Emax_drug_Neut [4]	EmaxT,MPP [5]	other results
1.11	0.000117	0.921	0.178	1.03	0.939	O=c1[nH]cc(F)c(=O)[nH]1 [5-FU]	0.3220	0.3220	1.91	0.7982	0.7982	0.1807	0.1807	2.3324	2.3324	0.0016	0.0016	0.2668	0.2668	0.000528	Emax_drug_MPP [5]: 0.000528; EmaxT,ErythroidII [6]: 0.0352; EC50 [6]: 1.78 µM; Emax_drug_ErythroidII [6]: 0.0352; EC50 (monocytes (monocyte-lin)): 0.299 µM; EmaxT,Mono (monocytes (monocyte-lin)): 0.3048; Emax_drug_Mono (monocytes (monocyte-lin)): 0.3048; EC50 (B cells (B-lin)): 1.09 µM; EmaxT,B (B cells (B-lin)): 0.8249; Emax_drug_B (B cells (B-lin)): 0.8249; EC50 [7]: 0.037 µM; EmaxT,LymP [7]: 0.0016; Emax_drug_LymP [7]: 0.0016; EC50 [8]: 0.753 µM; EmaxT,GMP [8]: 1.5687; Emax_drug_GMP [8]: 1.5687; EmaxT,GranP [9]: 0.0162; EC50 [9]: 0.302 µM; Emax_drug_GranP [9]: 0.0162
0.0241	0.000687	0.0323	0.182	0.4	1	Cc1c(-c2ccc(N3CCc4cccc(C(=O)Nc5nc6ccccc6s5)c4C3)nc2C(=O)O)cnn1CC12CC3CC(CC(C3)C1)C2 [A_1331852]	0.1880	0.1880	1.96	0.0828	0.0828	2.2504	2.2504	2.5750	2.5750	1.47e-5	1.47e-5	1.51e-7	1.51e-7	2.15e-6	Emax_drug_MPP [5]: 2.15e-6; EmaxT,ErythroidII [6]: 1.51e-6; EC50 [6]: 1.16 µM; Emax_drug_ErythroidII [6]: 1.51e-6; EC50 (monocytes (monocyte-lin)): 0.0155 µM; EmaxT,Mono (monocytes (monocyte-lin)): 0.0610; Emax_drug_Mono (monocytes (monocyte-lin)): 0.0610; EC50 (B cells (B-lin)): 0.0131 µM; EmaxT,B (B cells (B-lin)): 0.1187; Emax_drug_B (B cells (B-lin)): 0.1187; EC50 [7]: 0.0212 µM; EmaxT,LymP [7]: 1.6e-5; Emax_drug_LymP [7]: 1.6e-5; EC50 [8]: 0.911 µM; EmaxT,GMP [8]: 1.14e-6; Emax_drug_GMP [8]: 1.14e-6; EmaxT,GranP [9]: 1.71e-6; EC50 [9]: 0.949 µM; Emax_drug_GranP [9]: 1.71e-6
